Key:
[1] = test system: morningglory; assay: Test A preemergence; format: in vivo, Ipomoea spp.; conditions: preemergence; for Morningglory plant response rating (0 to 100 scale): 125 g ai/ha, visual injury approx. 10 days after treatment; for Morningglory plant response rating: 500 g ai/ha, visual injury after approx. 10 days, 0 to 100 scale (0 no effect, 100 complete control)
Outline: (§1)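 Growth medium: loam soil blended with sand. Preemergence treatment used a directed soil spray right after planting; postemergence treatment targeted seedlings at one to two leaves (2–10 cm height). Response was judged by eye relative to untreated plants about 10 days later on a 0–100 control scale.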

[2] = test system: corn; assay: Test A postemergence; format: in vivo, Zea mays
Outline: as §1

[3] = test system: sedge, umbrella; assay: Test B flood; format: in vivo, Cyperus difformis; conditions: 250 g ai/ha, visual rating on 0 to 100 scale (0 no effect, 100 complete control), 13 to 15 days
Outline: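 Response scored visually, 0–100 relative to controls, 13–15 days after the compound was applied into paddy water; plants were at the 2-leaf stage in pots kept flooded to 3 cm.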

[4] = test system: ryegrass, Italian; assay: Test C preemergence; format: in vivo, Lolium multiflorum
Outline: (§2)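 Herbicidal effect is expressed as percent visual control (0–100) judged against untreated plants 13 to 15 days after treatment in the greenhouse. Preemergence pots contained seeds in a soil–sand blend; postemergence plants, 2–18 cm tall, grew in peat-based planting medium.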

[5] = test system: galium; assay: Test C preemergence; format: in vivo, Galium aparine
Outline: as §2

[6] = test system: crabgrass, large; assay: Test C preemergence; format: in vivo, Digitaria sanguinalis
Outline: as §2

[7] = test system: wheat; assay: Test C postemergence; format: in vivo, Triticum aestivum; conditions: postemergence; for Plant response rating, Wheat: 250 g ai/ha, scale 0 to 100 (0 no effect, 100 complete control); for Wheat plant response rating: scale 0 to 100
Outline: as §2

[8] = test system: foxtail, giant; assay: Test C postemergence; format: in vivo, Setaria faberii; conditions: for Plant response rating (scale of 0 to 100 where 0 is no effect and 100 is complete control), Foxtail, Giant: Postemergence, 31 g ai/ha, visually evaluated after 13 to 15 days; for Foxtail, Giant plant response rating / Plant response rating, Foxtail, Giant: postemergence; for Foxtail, Giant plant response rating: 62 g ai/ha, scale 0 to 100
Outline: as §2

[9] = test system: morningglory; assay: Test C postemergence; format: in vivo, Ipomoea coccinea; conditions: for Plant response rating (scale of 0 to 100 where 0 is no effect and 100 is complete control), Morningglory: Postemergence, 31 g ai/ha, visually evaluated after 13 to 15 days; for Morningglory plant response rating / Plant response rating, Morningglory: postemergence; for Morningglory plant response rating: 62 g ai/ha, scale 0 to 100
Outline: as §2

[10] = test system: pigweed; assay: Test C postemergence; format: in vivo, Amaranthus retroflexus; conditions: postemergence; for Pigweed plant response rating: 62 g ai/ha, scale 0 to 100
Outline: as §2

[11] = test system: ragweed; assay: Test C postemergence; format: in vivo, Ambrosia elation; conditions: postemergence
Outline: as §2

[12] = test system: oat, wild; assay: Test C postemergence; format: in vivo, Avena fatua; conditions: for Plant response rating (scale of 0 to 100 where 0 is no effect and 100 is complete control), Oat, Wild: Postemergence, 31 g ai/ha, visually evaluated after 13 to 15 days; for Oat, Wild plant response rating / Plant response rating, Oat, Wild: postemergence; for Oat, Wild plant response rating: 62 g ai/ha, scale 0 to 100
Outline: as §2

[13] = test system: chickweed; assay: Test C postemergence; format: in vivo, Stellaria media; conditions: for Plant response rating (scale of 0 to 100 where 0 is no effect and 100 is complete control), Chickweed: Postemergence, 31 g ai/ha, visually evaluated after 13 to 15 days; for Chickweed plant response rating / Plant response rating, Chickweed: postemergence; for Chickweed plant response rating: 62 g ai/ha, scale 0 to 100
Outline: as §2

[14] = Postemergence, 500 g ai/ha, 0 to 100 scale (0 no effect, 100 complete control)
[15] = postemergence, 125 g ai/ha, about 10 days, visual rating on 0 to 100 scale (0 no effect, 100 complete control)
[16] = preemergence, 31 g ai/ha, visual rating, scale 0 to 100 (0 no effect, 100 complete control), 13 to 15 days
[17] = preemergence, 62 g ai/ha, scale 0 to 100 (0 no effect, 100 complete control), 13 to 15 days
[18] = preemergence, 125 g ai/ha, 13 to 15 days, scale 0 to 100, 0 = no effect, 100 = complete control
[19] = preemergence, 250 g ai/ha, scale 0 to 100, 0 is no effect, 100 is complete control
[20] = 250 g ai/ha, scale 0 to 100 (0 no effect, 100 complete control)
[21] = 125 g ai/ha, scale 0 to 100, 0 no effect, 100 complete control
[22] = Preemergence, rate head not shown (block before 16 g ai/ha), scale 0 to 100

## CCNC(=O)c1cc(CC)n(Cc2cc(C(F)(F)F)nn2C)n1 [Compound 154]
[1]
  Morningglory plant response rating (0 to 100 scale): 100
  Morningglory plant response rating: 100
[2]; [14]
  Corn plant response rating: 100
[2]; [15]
  Corn plant response rating: 40
[3]
  Plant response rating, Sedge, Umbrella: 95
[4]; [16]
  Ryegrass, Italian plant response rating: 5
[4]; [17]
  Ryegrass, Italian plant response rating: 10
[4]; [18]
  Plant response rating, Ryegrass, Italian: 50
[4]; [19]
  Ryegrass, Italian plant response rating: 90
[5]; [16]
  Galium plant response rating: 90
[5]; [17]
  Galium plant response rating: 100
[5]; [18]
  Plant response rating, Galium: 100
[5]; [19]
  Galium plant response rating: 100
[6]; [16]
  Crabgrass, Large plant response rating: 100
[6]; [17]
  Crabgrass, Large plant response rating: 100
[6]; [18]
  Plant response rating, Crabgrass, Large: 100
[6]; [19]
  Crabgrass, Large plant response rating: 100
[7]
  Plant response rating, Wheat: 10
  Wheat plant response rating: 5
[8]
  Plant response rating (scale of 0 to 100 where 0 is no effect and 100 is complete control), Foxtail, Giant: 5
  Foxtail, Giant plant response rating: 5
[8]; [20]
  Plant response rating, Foxtail, Giant: 10
[8]; [21]
  Plant response rating, Foxtail, Giant: 5
[9]
  Plant response rating (scale of 0 to 100 where 0 is no effect and 100 is complete control), Morningglory: 15
  Morningglory plant response rating: 60
[9]; [20]
  Plant response rating, Morningglory: 95
[9]; [21]
  Plant response rating, Morningglory: 85
[10]
  Pigweed plant response rating: 65
[10]; [20]
  Plant response rating, Pigweed: 95
[10]; [21]
  Plant response rating, Pigweed: 85
[11]; [20]
  Plant response rating, Ragweed: 35
[11]; [21]
  Plant response rating, Ragweed: 15
[12]
  Plant response rating (scale of 0 to 100 where 0 is no effect and 100 is complete control), Oat, Wild: 5
  Oat, Wild plant response rating: 5
[12]; [20]
  Plant response rating, Oat, Wild: 25
[12]; [21]
  Plant response rating, Oat, Wild: 20
[13]
  Plant response rating (scale of 0 to 100 where 0 is no effect and 100 is complete control), Chickweed: 60
  Chickweed plant response rating: 70
[13]; [20]
  Plant response rating, Chickweed: 90
[13]; [21]
  Plant response rating, Chickweed: 60

## CCCNC(=O)c1cc(CCF)n(Cc2ccnc(C(F)(F)F)c2)n1 [Compound 177]
[1]
  Morningglory plant response rating (0 to 100 scale): 100
  Morningglory plant response rating: 100
[2]; [14]
  Corn plant response rating: 100
[2]; [15]
  Corn plant response rating: 90
[3]
  Plant response rating, Sedge, Umbrella: 95
[4]; [16]
  Ryegrass, Italian plant response rating: 5
[4]; [17]
  Ryegrass, Italian plant response rating: 40
[4]; [18]
  Plant response rating, Ryegrass, Italian: 85
[4]; [19]
  Ryegrass, Italian plant response rating: 90
[5]; [16]
  Galium plant response rating: 100
[5]; [17]
  Galium plant response rating: 100
[5]; [18]
  Plant response rating, Galium: 100
[5]; [19]
  Galium plant response rating: 100
[6]; [16]
  Crabgrass, Large plant response rating: 100
[6]; [17]
  Crabgrass, Large plant response rating: 100
[6]; [18]
  Plant response rating, Crabgrass, Large: 100
[6]; [19]
  Crabgrass, Large plant response rating: 100
[7]
  Plant response rating, Wheat: 20
  Wheat plant response rating: 15
[8]
  Plant response rating (scale of 0 to 100 where 0 is no effect and 100 is complete control), Foxtail, Giant: 5
  Foxtail, Giant plant response rating: 10
[8]; [20]
  Plant response rating, Foxtail, Giant: 45
[8]; [21]
  Plant response rating, Foxtail, Giant: 30
[9]
  Plant response rating (scale of 0 to 100 where 0 is no effect and 100 is complete control), Morningglory: 60
  Morningglory plant response rating: 40
[9]; [20]
  Plant response rating, Morningglory: 80
[9]; [21]
  Plant response rating, Morningglory: 85
[10]
  Pigweed plant response rating: 40
[10]; [20]
  Plant response rating, Pigweed: 85
[10]; [21]
  Plant response rating, Pigweed: 75
[11]; [20]
  Plant response rating, Ragweed: 75
[11]; [21]
  Plant response rating, Ragweed: 70
[12]
  Plant response rating (scale of 0 to 100 where 0 is no effect and 100 is complete control), Oat, Wild: 5
  Oat, Wild plant response rating: 5
[12]; [20]
  Plant response rating, Oat, Wild: 40
[12]; [21]
  Plant response rating, Oat, Wild: 15
[13]
  Plant response rating (scale of 0 to 100 where 0 is no effect and 100 is complete control), Chickweed: 60
  Chickweed plant response rating: 75
[13]; [20]
  Plant response rating, Chickweed: 90
[13]; [21]
  Plant response rating, Chickweed: 70

## CCc1cc(C(=O)NCC(F)(F)F)nn1Cc1ccnc(Br)c1 [Compound 224]
[1]
  Morningglory plant response rating (0 to 100 scale): 30
[2]; Postemergence, 125 g ai/ha, 0 to 100 scale, 0 no effect, 100 complete control
  Corn plant response rating: 60
[2]; [14]
  Corn plant response rating: 90
[3]
  Plant response rating, Sedge, Umbrella: 90
[4]; [22]
  Plant response rating, Ryegrass, Italian: 10
[4]; [17]
  Ryegrass, Italian plant response rating: 60
[4]; [18]
  Plant response rating, Ryegrass, Italian: 50
[4]; [19]
  Ryegrass, Italian plant response rating: 30
[5]; [22]
  Plant response rating, Galium: 80
[5]; [17]
  Galium plant response rating: 80
[5]; [18]
  Plant response rating, Galium: 100
[5]; [19]
  Galium plant response rating: 90
[6]; [22]
  Plant response rating, Crabgrass, Large: 100
[6]; [17]
  Crabgrass, Large plant response rating: 100
[6]; [18]
  Plant response rating, Crabgrass, Large: 100
[6]; [19]
  Crabgrass, Large plant response rating: 100
[7]
  Plant response rating, Wheat: 5
  Wheat plant response rating: 0
[8]
  Plant response rating (scale of 0 to 100 where 0 is no effect and 100 is complete control), Foxtail, Giant: 5
  Foxtail, Giant plant response rating: 5
[8]; [20]
  Plant response rating, Foxtail, Giant: 5
[8]; [21]
  Plant response rating, Foxtail, Giant: 5
[9]
  Plant response rating (scale of 0 to 100 where 0 is no effect and 100 is complete control), Morningglory: 25
  Morningglory plant response rating: 20
[9]; [20]
  Plant response rating, Morningglory: 65
[9]; [21]
  Plant response rating, Morningglory: 25
[10]
  Pigweed plant response rating: 50
[10]; [20]
  Plant response rating, Pigweed: 75
[10]; [21]
  Plant response rating, Pigweed: 50
[11]; [20]
  Plant response rating, Ragweed: 35
[11]; [21]
  Plant response rating, Ragweed: 10
[12]
  Plant response rating (scale of 0 to 100 where 0 is no effect and 100 is complete control), Oat, Wild: 5
  Oat, Wild plant response rating: 5
[12]; [20]
  Plant response rating, Oat, Wild: 10
[12]; [21]
  Plant response rating, Oat, Wild: 10
[13]
  Plant response rating (scale of 0 to 100 where 0 is no effect and 100 is complete control), Chickweed: 50
  Chickweed plant response rating: 55
[13]; [20]
  Plant response rating, Chickweed: 90
[13]; [21]
  Plant response rating, Chickweed: 55

— US20150105252A1, “SUBSTITUTED PYRAZOLES AS HERBICIDES” (E I DU PONT DE NEMOURS AND COMPANY, priority 2013, published 2015)
